From patent US7825114B2, “Substituted aminopyrazolopyridines and salts thereof, pharmaceutical compositions comprising same, methods of preparing same and uses of same” (Bayer Schering Pharma AG, priority 2006, dated 2010)

What was measured:
human c-kit = target: T1, human c-kit (Homo sapiens, UniProt P10721); test: cKIT-Kinase HTRF-Assay (assay 4); type: biochemical; settings: for IC50: GST-tagged kinase domain of human c-kit, 10 μM ATP; for Selectivity vs. cKit: IC50 assay 4/IC50 assay 2
T1 construct: GST-tagged recombinant kinase domain of the human c-kit; GST; host or cells: SF-9 insect cells
T1 sequence (P10721 589-937 limits assumed): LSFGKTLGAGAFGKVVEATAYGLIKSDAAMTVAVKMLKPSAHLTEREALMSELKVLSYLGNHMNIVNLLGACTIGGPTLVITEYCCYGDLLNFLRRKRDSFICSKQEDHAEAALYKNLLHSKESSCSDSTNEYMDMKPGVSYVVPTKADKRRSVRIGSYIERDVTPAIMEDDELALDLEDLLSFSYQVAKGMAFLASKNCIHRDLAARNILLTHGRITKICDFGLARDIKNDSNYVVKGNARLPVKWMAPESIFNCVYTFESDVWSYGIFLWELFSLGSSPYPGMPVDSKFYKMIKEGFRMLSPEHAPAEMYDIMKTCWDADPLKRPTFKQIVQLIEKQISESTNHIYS
Description: Assay 4: cKIT-Kinase HTRF-Assay
c-Kit-inhibitory activity of compounds of the present invention was quantified employing the c-kit HTRF assay as described in the following paragraphs. GST-tagged recombinant kinase domain of the human c-kit expressed in SF-9 cells was used as kinase. As substrate for the kinase reaction biotinylated poly-(Glu,Tyr) (Cis biointernational, France) was used.
c-Kit was incubated for 30 min at 22° C. in the presence of different concentrations of test compounds in 5 μl assay buffer [50 mM Hepes/NaOH pH 7.0, 1 mM MgCl2, 5 mM MnCl2, 1.0 mM dithiothreitol, 0.1 mM sodium ortho-vanadate, 10 μM adenosine-tri-phosphate (ATP), 1.3 μg/ml substrate, 0.001% (v/v) Nonidet-P40 (Sigma), 1% (v/v) dimethylsulfoxide]. The concentration of c-kit was adjusted depending of the activity of the enzyme lot and was chosen appropriate to have the assay in the linear range. The reaction was stopped by the addition of 5 μl of a solution of HTRF detection reagents (0.1 μM streptavidine-XLent and 1 nM PT66-Eu-Chelate, an europium-chelate labelled anti-phospho-tyrosine antibody from Perkin Elmer) in an aqueous EDTA-solution (80 mM EDTA, 0.2% (w/v) bovine serum albumin in 50 mM HEPES/NaOH pH 7.0).
(§1) The resulting mixture was incubated 1 h at 22° C. to allow the binding of the biotinylated phosphorylated peptide to the streptavidine-XLent and the PT66-Eu-Chelate. Subsequently the amount of phosphorylated substrate was evaluated by measurement of the resonance energy transfer from the PT66-Eu-Chelate to the streptavidine-XLent. Therefore, the fluorescence emissions at 620 nm and 665 nm after excitation at 350 nm was measured in a HTRF reader, e.g. a Rubystar (BMG Labtechnologies, Offenburg, Germany) or a Viewlux (Perkin-Elmer). The ratio of the emissions at 665 nm and at 622 nm was taken as the measure for the amount of phosphorylated substrate.

Tie2 [1] = target: T2, Tie2 (Homo sapiens, UniProt Q02763); test: Tie2 ELISA assay (assay 1): cellular Tie2 autophosphorylation; type: cell-based; parameters: expressed in transfected cells; host or cells: CHO (DHFR-deficient), stably transfected; settings: CHO cells stably transfected with Tie2, stimulated by angiopoietin-2; Tie2 autophosphorylation by sandwich-ELISA; read-out: Tie 2 activity (assay 1)
Description: Assay 1: Tie2 ELISA Assay
Cellular activity of compounds of the present invention as inhibitors of Tie2 kinase activity was measured employing a Tie2 ELISA assay as described in the following paragraphs. Herein CHO cell-cultures, which are stably transfected by known techniques with Tie2 using DHFR deficiency as selection marker, are stimulated by angiopoietin-2. The specific autophosphorylation of Tie2 receptors is quantified with a sandwich-ELISA using anti-Tie2 antibodies for catch and anti-phosphotyrosine antibodies coupled to HRP for detection. […]
Target sequence in this assay (Q02763 23-1124): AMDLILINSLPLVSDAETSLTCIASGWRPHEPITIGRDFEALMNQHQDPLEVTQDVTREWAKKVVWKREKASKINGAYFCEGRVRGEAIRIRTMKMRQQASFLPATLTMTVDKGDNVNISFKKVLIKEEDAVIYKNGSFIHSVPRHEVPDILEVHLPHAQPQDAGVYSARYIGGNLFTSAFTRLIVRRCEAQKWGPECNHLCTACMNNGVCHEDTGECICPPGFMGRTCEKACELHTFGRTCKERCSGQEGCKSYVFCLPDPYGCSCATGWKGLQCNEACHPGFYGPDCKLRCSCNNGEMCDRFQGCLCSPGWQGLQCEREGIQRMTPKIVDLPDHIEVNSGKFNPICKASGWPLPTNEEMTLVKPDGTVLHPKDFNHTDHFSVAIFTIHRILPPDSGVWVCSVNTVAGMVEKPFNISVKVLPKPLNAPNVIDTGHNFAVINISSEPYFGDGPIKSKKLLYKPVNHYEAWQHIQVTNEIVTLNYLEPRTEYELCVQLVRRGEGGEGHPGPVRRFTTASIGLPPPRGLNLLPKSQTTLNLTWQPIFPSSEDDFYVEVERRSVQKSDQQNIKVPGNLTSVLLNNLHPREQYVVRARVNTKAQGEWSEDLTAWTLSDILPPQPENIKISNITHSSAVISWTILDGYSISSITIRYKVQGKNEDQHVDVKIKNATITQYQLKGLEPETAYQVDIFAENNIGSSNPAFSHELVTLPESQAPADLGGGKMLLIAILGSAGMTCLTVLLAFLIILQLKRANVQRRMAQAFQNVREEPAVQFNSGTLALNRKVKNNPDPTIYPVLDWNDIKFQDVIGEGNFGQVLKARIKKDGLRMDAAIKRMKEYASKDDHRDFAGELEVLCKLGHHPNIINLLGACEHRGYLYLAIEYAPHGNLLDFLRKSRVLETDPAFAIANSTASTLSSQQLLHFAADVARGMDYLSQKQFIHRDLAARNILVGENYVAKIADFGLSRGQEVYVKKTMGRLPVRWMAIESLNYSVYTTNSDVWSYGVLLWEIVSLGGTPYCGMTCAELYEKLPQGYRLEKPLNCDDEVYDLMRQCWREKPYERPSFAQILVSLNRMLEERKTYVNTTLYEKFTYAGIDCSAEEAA

Tie2 [2] = target: T2, Tie2; test: Tie-2-Kinase HTRF-Assay without kinase preactivation (assay 2); type: biochemical; parameters: A recombinant fusion protein of GST and the intracellular domains of Tie-2; GST; made in house; host or cells: insect cells (Hi-5); settings: GST-Tie-2 intracellular domains, no preactivation, 10 μM ATP
Excerpt: Assay 2: Tie-2-Kinase HTRF-Assay without Kinase Preactivation
Tie2-inhibitory activity of compounds of the present invention was quantified employing two Tie2 HTRF assay as described in the following paragraphs.
A recombinant fusion protein of GST and the intracellular domains of Tie-2, expressed in insect cells (Hi-5) and purified by Glutathion-Sepharose affinity chromatography was used as kinase. Alternatively, commercially available GST-Tie2-fusion protein (Upstate Biotechnology, Dundee, Scotland) can be used As substrate for the kinase reaction the biotinylated peptide biotin-Ahx-[…] (C-terminus in amid form) was used which can be purchased e.g. from the company Biosynthan GmbH (Berlin-Buch, Germany). Detection of phosphorylated product is achieved specifically by a trimeric detection complex consisting of the phosphorylated substrate, streptavidin-XLent (SA-XLent) which binds to biotin, and Europium Cryptate-labeled anti-phosphotyrosine antibody PT66 which binds to phosphorylated tyrosine.
The reaction was stopped by the addition of 5 μl of an aqueous buffer (25 mM Hepes/NaOH pH 7.5, 0.28% (w/v) bovine serum albumin) containing EDTA (90 mM) and the HTRF (Homogeneous Time Resolved Fluorescence) detection reagents streptavidine-XLent (0.2 μM, from Cis Biointernational, Marcoule, France) and PT66-Eu-Chelate (0.3 ng/μl; a europium-chelate labelled anti-phospho-tyrosine antibody from Perkin Elmer).
as §1, with “substrate peptide” for “substrate”, “substrate peptide.” for “substrate.”
Target sequence in this assay (Q02763 770-1124 limits assumed): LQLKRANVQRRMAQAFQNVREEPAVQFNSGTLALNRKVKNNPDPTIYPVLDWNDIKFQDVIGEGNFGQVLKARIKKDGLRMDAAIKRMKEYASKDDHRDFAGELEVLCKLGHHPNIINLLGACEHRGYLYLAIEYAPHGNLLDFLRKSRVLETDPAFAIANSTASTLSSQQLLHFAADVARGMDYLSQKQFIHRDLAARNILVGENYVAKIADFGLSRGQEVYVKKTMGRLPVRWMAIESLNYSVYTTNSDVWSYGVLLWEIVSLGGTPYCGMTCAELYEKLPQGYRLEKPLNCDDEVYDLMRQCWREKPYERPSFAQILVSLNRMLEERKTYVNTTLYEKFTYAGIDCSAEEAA

Tie2 vs. KDR [3] = settings: Albert et al. Mol. Cancer. Ther. 2006, 5, 995; cited from earlier work
Tie2 vs. KDR [4] = settings: Albert et al. Mol. Cancer. Ther. 2006, 5, 995; cited from earlier work; remark: listed apart in the source

| SMILES | IC50 (human c-kit) [nM] | Selectivity vs. cKit (human c-kit) | IC50 (Tie2 [1]) [nM] | IC50 (Tie2 [2]) [nM] | times less active against Tie2 than KDR in cellular assays (Tie2 vs. KDR [3]) [times] | times less active against Tie2 vs. KDR in enzymatic assays (Tie2 vs. KDR [4]) [times] |
| --- | --- | --- | --- | --- | --- | --- |
| Cn1nc(N)c2c(-c3ccc(NC(=O)Nc4cccc(C(F)(F)F)c4)cc3)cc(C3(C(N)=O)CC3)nc21 [Example 2.1, 1-(3-Amino-1-methyl-4-{4-[3-(3-trifluoromethyl-phenyl)-ureido]-phenyl}-1H-pyrazolo[3,4-b]pyridin-6-yl)-cyclopropanecarboxylic acid amide] | 100 to 1000 | 6 | ≤ 100 | ≤ 100 |  |  |
| Cc1ccc(F)c(NC(=O)Nc2ccc(-c3cc(C4(C(=O)N5CCCC5)CC4)nc4c3c(N)nn4C)cc2)c1 [Example 4.3] | 1000 to 10000 | >100 | ≤ 100 | ≤ 100 |  |  |
| Cc1ccc(F)c(NC(=O)Nc2ccc(-c3cc(C4(C(=O)N(C)C)CC4)nc4c3c(N)nn4C)cc2)c1 [Example 4.4, 1-(3-Amino-4-{4-[3-(2-fluoro-5-methyl-phenyl)-ureido]-phenyl}-1-methyl-1H-pyrazolo[3,4-b]pyridin-6-yl)-cyclopropanecarboxylic acid dimethylamide] | 1000 to 10000 | 15 | ≤ 100 | ≤ 100 |  |  |
| Cn1nc(N)c2c(-c3ccc(NC(=O)Nc4cccc(C(F)(F)F)c4)cc3)cc(C3CCC3)nc21 [Example 6.1, 1-[4-(3-Amino-6-cyclobutyl-1-methyl-1H-pyrazolo[3,4-b]pyridin-4-yl)-phenyl]-3-(3-trifluoromethyl-phenyl)-urea] | 1000 to 10000 | 20 | ≤ 100 | ≤ 100 |  |  |
| Cn1nc(N)c2c(-c3ccc(NC(=O)Nc4cccc(C(F)(F)F)c4)cc3)cc(C3CCCCC3)nc21 [Example 7.1, 1-[4-(3-Amino-6-cyclohexyl-1-methyl-1H-pyrazolo[3,4-b]pyridin-4-yl)-phenyl]-3-(3-trifluoromethyl-phenyl)-urea] | 100 to 1000 | 9 | ≤ 100 | ≤ 100 |  |  |
| COC(=O)C[C@@H]1C[C@H](c2cc(-c3ccc(NC(=O)Nc4cccc(C(F)(F)F)c4)cc3)c3c(N)nn(C)c3n2)C1(C)C [Example 8.2, [3-(3-Amino-1-methyl-4-{4-[3-(3-trifluoromethyl-phenyl)-ureido]-phenyl}-1H-pyrazolo[3,4-b]pyridin-6-yl)-2,2-dimethyl-cyclobutyl]-acetic acid methyl ester] | 1000 to 10000 | 30 | ≤ 100 | ≤ 100 |  |  |
| Cc1ccc(F)c(NC(=O)Nc2ccc(-c3cccc4[nH]nc(N)c34)cc2)c1 [PA1, 1-[4-(3-Amino-1H-indazol-4-yl)-phenyl]-3-(2-fluoro-5-methyl-phenyl)-urea] |  |  |  |  | ~1000 | ~40 |
| Nc1n[nH]c2nccc(-c3ccc(NC(=O)Nc4cccc(C(F)(F)F)c4)cc3)c12 [PA2, 1-[4-(3-Amino-1H-pyrazolo[3,4-b]pyridin-4-yl)-phenyl]-3-(3-trifluoromethyl-phenyl)-urea, reference compound] | ≤ 100 | 0.67 | ≤ 100 | ≤ 100 |  |  |
| Cc1ccc(F)c(NC(=O)Nc2ccc(-c3ccnc4[nH]nc(N)c34)cc2)c1 [PA3, 1-[4-(3-Amino-1H-pyrazolo[3,4-b]pyridin-4-yl)-phenyl]-3-(2-fluoro-5-methyl-phenyl)-urea, reference compound] | ≤ 100 | 0.26 | 100 to 1000 | ≤ 100 |  |  |
| Cn1nc(N)c2c(-c3ccc(NC(=O)Nc4cccc(C(F)(F)F)c4)cc3)ccnc21 [PA4, 1-[4-(3-Amino-1-methyl-1H-pyrazolo[3,4-b]pyridin-4-yl)-phenyl]-3-(3-trifluoromethyl-phenyl)-urea, reference compound] | 100 to 1000 | 1.6 | ≤ 100 | ≤ 100 |  |  |
| Cc1ccc(F)c(NC(=O)Nc2ccc(-c3ccnc4c3c(N)nn4C)cc2)c1 [PA5, 1-[4-(3-Amino-1-methyl-1H-pyrazolo[3,4-b]pyridin-4-yl)-phenyl]-3-(2-fluoro-5-methyl-phenyl)-urea, reference compound] | ≤ 100 | 0.5 | ≤ 100 | 100 to 1000 |  |  |
| Cn1nc(N)c2c(-c3ccc(NC(=O)Nc4ccccc4)cc3)ccnc21 [PA6, 1-[4-(3-Amino-1-methyl-1H-pyrazolo[3,4-b]pyridin-4-yl)-phenyl]-3-phenyl-urea, reference compound] | ≤ 100 | 0.06 | 1000 to 10000 | 1000 to 10000 |  |  |
